Test results taken from article PMC6541264, “Molecular mechanisms involved in drug-induced liver injury caused by urate-lowering Chinese herbs: A network pharmacology study and biology experiments” (PLoS ONE, 2019).

Key:
Format in all cases: cell-based, human
L-02 cells [1] = experiment: MTT assay, cell viability of L-02 cells; details: dose of 60–90 μmol/L
Method: (§1) The normal hepatic cell (L02) cell lines were obtained from the National Infrastructure of Cell Line Resources (Chinese Academy of Medical Sciences, Beijing, China), and maintained in Dulbecco’s modified Eagle’s medium (DMEM, 10-013-CVR) supplemented with 10% fetal bovine serum (FBS, Hyclone), 1% penicillin and streptomycin (PS, 100 IU/ml penicillin, 100 μg/ml streptomycin, Mediatech, 30-002-CI). All cells were incubated in a humidified atmosphere at 37°C with 5% CO2.
(§2) L-02 cells were trypsinized by 0.25% trypsin after reaching the confluence of 70–80% and plated in 96-well plates at the density of 1.6 × 10^3 […]. And L-02 cells were cultured for 24 hours in vitro before exposure to varying concentrations of different representative compounds with liver injury for further incubating in another 24 hours. Then, 20 μl of 0.25 mg/ml3-(4,5-dimethylthiazol-2-yl)-2,5-diphenyltetrazolium bromide (MTT)-tetrazolium salts (Sigma-Aldrich Corp., St. Louis, MO, USA) in PBS was added to each hole in 96-well plates. After 4 hours of incubation, the formazan crystals were dissolved by 150μl Dimethyl Sulphoxide (DMSO), and shocked to dissolve thoroughly, then the cell viability was measured by MTT method at 570 nm. All experiments were repeated in triplicate independently.

[2] = MTT assay, cell viability of L-02 cells; details: human, L-02 (L02) normal hepatic cells, L-02, MTT, 24 h, read-out: cells viabilityrate
Method: as §1, §2

p38α = experiment: Western blot, expression of p-p38α/p38α in L-02 cells, without and with inhibitor SB203580
From the text: After the examination of biochemical indicators for hepatotoxicity in the cell, the expression of crucial liver injury protein in L02 cell lines among different groups was compared by Western blot analysis. Briefly, the proteins from different groups were harvested and lysed using lysis buffer (Sigma-Aldrich) containing a proteinase inhibitor cocktail (Sigma-Aldrich), the equal amounts of protein were separated by electrophoresis on a pre-cast 10% SDS-polyacrylamide gel (Bio-Rad, Hercules, CA) and transferred to polyvinylidene difluoride membranes (Millipore, Bedford, MA). Next, the membrane was blocked in TBST-T containing 5% skim milk for 2 h at room temperature and probed with anti-beta-catenin, and incubated overnight with the indicated primary antibody, followed by incubation with the secondary antibodies at room temperature for another 2 h. Finally, all the immune blots were visualized by enhanced chemiluminescence (Pierce Biotechnology, Inc., Rockford, IL, USA) and western blots were performed at least three times.
According to the results of network pharmacology, we examined the expression levels of p38α. […] The Specific specific composition information is was shown in S3 Table. […] However, the mechanism of saikosaponin D causing liver injury still remained unclear.
(§3) To further and fully elucidating the mechanism of the liver injury caused by the representative compounds from urate-lowering Chinese herbs, we chose the p38α inhibitor, SB203580 to verify our findings. Seemingly, the ALT, AST, ALP, and LDH activities of each group decreased to varying degrees under the influence of inhibitor. The specific composition information was shown in S2 Table. […] The Specific specific composition information is was shown in S4 Table.

L-02 cells [3] = experiment: Biochemical indicators of hepatotoxicity (ALT, AST, LDH, ALP activity) of L-02 cells, without and with p38 inhibitor SB203580
Method: as §1
To determine how potential liver injury-compounds affected biochemical indicators of L-02 cells, we investigated the activities of AST, ALT, LDH and ALP in cell migration capacity under the different representative compounds conditions (representative compounds group), the inhibitor conditions (inhibitor group), and the negative control. For these experiments, three replicates were made for each concentration of the different representative compounds with liver injury, and each group was established three holes and cultured in 6 times repeatedly. […] Subsequently, the supernatant extraction of L02 cells was collected and centrifuged to detect the activities of AST, ALT, LDH, and ALP by chromatometry method.
as §3, with “Seemingly, the ALT, AST, ALP, and LDH activities of each group decreased to varying degrees under the influence of inhibitor.” left out

[4] = Table 5, L-02 supernatant, 24 h, 40μmol/L
[5] = Table 5, L-02 supernatant, 24 h, 60μmol/L
[6] = Table 5, L-02 supernatant, 24 h, 80μmol/L

COc1ccc2cc1Oc1ccc(cc1)C[C@H]1c3cc(c(OC)cc3CCN1C)Oc1c(OC)c(OC)cc3c1[C@H](C2)N(C)CC3 [Tetrandrine]
cell survival rate, in words (L-02 cells [1]): lower cell survival rate
viability at 24 h, 40 μmol/L ([2]; 40 μmol/L): 101 ± 9.72%
viability at 24 h, 60 μmol/L ([2]; 60 μmol/L): 91.8 ± 4.63%
viability at 24 h, 80 μmol/L ([2]; 80 μmol/L): 83.3 ± 5.22%
p-p38α/p38α (p38α; S3 Table, L-02, 24 hours of incubation, 40μmol/L): 1.03±0.29
p-p38α/p38α (p38α; S3 Table, L-02, 24 hours of incubation, 60μmol/L): 0.98±0.14
p-p38α/p38α (p38α; S3 Table, L-02, 24 hours of incubation, 80μmol/L): 1.26±0.52
p-p38α/p38α (p38α; S4 Table, L-02, 24 hours, 40μmol/L+inhibitor (SB203580)): 0.81±0.03
p-p38α/p38α (p38α; S4 Table, L-02, 24 hours, 40μmol/L, no inhibitor): 0.97±0.03
p-p38α/p38α (p38α; S4 Table, L-02, 24 hours, 60μmol/L+inhibitor (SB203580)): 0.98±0.17
p-p38α/p38α (p38α; S4 Table, L-02, 24 hours, 60μmol/L, no inhibitor): 0.79±0.24
p-p38α/p38α (p38α; S4 Table, L-02, 24 hours, 80μmol/L+inhibitor (SB203580)): 1.28±0.26
p-p38α/p38α (p38α; S4 Table, L-02, 24 hours, 80μmol/L, no inhibitor): 1.17±0.07
ALT (L-02 cells [3]; S2 Table, L-02, 40μmol/L, no inhibitor): 16.55± 0.71 U/L
AST (L-02 cells [3]; S2 Table, L-02, 60μmol/L, no inhibitor): 5.64± 0.56 U/L
ALP (L-02 cells [3]; [4]): 16.55±0.71 ^*^Δ King's unit /100ml
ALT (L-02 cells [3]; [4]): 4.36±0.35 U/L
AST (L-02 cells [3]; [4]): 713.48±49.44 ^*^Δ U/L
LDH (L-02 cells [3]; [4]): 0.79±0.08 U/L
ALT (L-02 cells [3]; [5]): 5.01±1.20 U/L
AST (L-02 cells [3]; [5]): 705.81±98.97^Δ U/L
LDH (L-02 cells [3]; [5]): 0.82±0.16 U/L
ALP (L-02 cells [3]; [6]): 17.45±0.35 ^**^ΔΔ King's unit /100ml
ALT (L-02 cells [3]; [6]): 4.84±0.86 U/L
AST (L-02 cells [3]; [6]): 736.08±77.41 ^*^Δ U/L
LDH (L-02 cells [3]; [6]): 0.93±0.07 U/L

C[S+]([O-])c1ccc(-c2nc(-c3ccncc3)c(-c3ccc(F)cc3)[nH]2)cc1 (stereo not drawn) [SB203580, reference compound]
effect on component-induced cell damage of L-02 cells, in words (L-02 cells [3]; SB203580 at the dose of 20μmol/L added to components): attenuate the component-induced cell damage
